Experimental data taken from ChEMBL document CHEMBL5360526, “Discovery of BET specific bromodomain inhibitors with a novel scaffold” (Bioorg Med Chem, 2022).

Legend:
[1] = target: T1, Bromodomain-containing protein 4 (Homo sapiens, UniProt O60885); assay: Inhibition of N-terminal GST-tagged/C-terminal 6His-tagged BRD4 BD1 (47 to 170 residues) (unknown origin) expressed in Escherichia coli BL21 (DE3) using SGRGK(Ac)GGK(Ac)GLGK(Ac) GGAK(Ac)RHRK-biotinylated peptide as substrate incubated for 60 mins by alpha screen assay
[2] = target: T1, Bromodomain-containing protein 4; assay: Inhibition of BRD4 BD2 (unknown origin) using SGRGK(Ac)GGK(Ac)GLGK(Ac) GGAK(Ac)RHRK-biotinylated peptide as substrate incubated for 60 mins by alpha screen assay

Structure (SMILES)	IC50 [1] [µM]	IC50 [2] [µM]
CC(C)Nc1ccc([N+](=O)[O-])c(Nc2ccc3[nH]nnc3c2)n1	9.8	10
CN(C)S(=O)(=O)Nc1ccc(NCC2CC2)nc1Nc1ccc2[nH]nnc2c1	4.45	5.63
CN(C)S(=O)(=O)Nc1ccc(NCc2ccco2)nc1Nc1ccc2[nH]nnc2c1	6.22	23
CN(C)S(=O)(=O)Nc1ccc(NCC(c2ccccc2)c2ccccc2)nc1Nc1ccc2[nH]nnc2c1	8.83	
CC(C)Nc1ccc(NS(=O)(=O)N(C)C)c(Nc2ccc3[nH]nnc3c2)n1	1.69	2.05
CC(C)Nc1ccc([N+](=O)[O-])c(Nc2ccc3c(c2)nnn3C(=O)Nc2ccccc2)n1	5.13	5.84
CC(C)Nc1ccc([N+](=O)[O-])c(Nc2ccc3c(c2)nnn3C(=O)c2ccccc2)n1	4.27	10.2
CN(C)S(=O)(=O)Nc1ccc(NC2COC2)nc1Nc1ccc2[nH]nnc2c1	6.85	9.95
CC(C)Nc1ccc(NS(=O)(=O)c2ccccc2F)c(Nc2ccc3[nH]nnc3c2)n1	1.42	1.66
CC(C)Nc1ccc(NC(=O)c2ccccc2)c(Nc2ccc3[nH]nnc3c2)n1	3.98	12.3
CN(C)S(=O)(=O)Nc1ccc(N2CCS(=O)(=O)CC2)nc1Nc1ccc2[nH]nnc2c1	20.1	10.4
CN(C)S(=O)(=O)Nc1ccc(NCc2ccc(F)cc2F)nc1Nc1ccc2[nH]nnc2c1	7.64	11.3
CCCS(=O)(=O)Nc1ccc(NC(C)C)nc1Nc1ccc2[nH]nnc2c1	3.23	3.02
CN(C)S(=O)(=O)Nc1ccc(NCc2ccc(F)cc2)nc1Nc1ccc2[nH]nnc2c1	5.24	
CC(C)Nc1ccc([N+](=O)[O-])c(Nc2ccc3c(c2)nnn3S(=O)(=O)c2ccccc2)n1	3.1	4.47
CC(C)Nc1ccc([N+](=O)[O-])c(Nc2ccc3c(c2)nnn3S(=O)(=O)c2ccc(F)cc2)n1	3.87	6.17
CC(C)Nc1ccc(NS(=O)(=O)c2cccnc2)c(Nc2ccc3[nH]nnc3c2)n1	0.83	0.8
COC(=O)NS(=O)(=O)Nc1ccc(NC(C)C)nc1Nc1ccc2[nH]nnc2c1	1.18	1.06
CN(C)S(=O)(=O)Nc1ccc(N2C3CCC2COC3)nc1Nc1ccc2[nH]nnc2c1	4.45	4.38
CN(C)S(=O)(=O)Nc1ccc(NCCCN2CCOCC2)nc1Nc1ccc2[nH]nnc2c1	5.41	15
CN(C)S(=O)(=O)Nc1ccc(NCCN2CCOCC2)nc1Nc1ccc2[nH]nnc2c1	7.97	11.5
CN(C)S(=O)(=O)Nc1ccc(NCc2cccc3ccccc23)nc1Nc1ccc2[nH]nnc2c1	7.91	
CC(C)Nc1ccc(NS(=O)(=O)C(C)C)c(Nc2ccc3[nH]nnc3c2)n1	1.12	1.24
